From patent US10947188B2, “Small molecule ferroptosis inducers” (THE TRUSTEES OF COLUMBIA UNIVERSITY IN THE CITY OF NEW YORK, priority 2016, dated 2021)

System: BJeLR
Assay: Modulatory profiling: Alamar Blue viability, lethal compound cotreated with death modulator (EC50, AUC); for AUC, modulator BJ.3MA: reference of the scale not given here; for AUC, modulator BJ.ALLN: reference of the scale not given here; for AUC, modulator BJ.Boc D: reference of the scale not given here; for AUC, modulator BJ.CHX: reference of the scale not given here; for AUC, modulator BJ.Co2+: reference of the scale not given here; for AUC, modulator BJ.DPQ: reference of the scale not given here; for AUC, modulator BJ.Gd3+: reference of the scale not given here; for AUC, modulator BJ.LNAME: reference of the scale not given here; for AUC, modulator BJ.NAD+: reference of the scale not given here; for AUC, modulator BJ.NMMA: reference of the scale not given here; for AUC, modulator BJ.Nec-1: reference of the scale not given here; for AUC, modulator BJ.Pepstatin: reference of the scale not given here; for AUC, modulator BJ.TLCK: reference of the scale not given here
Type: cell-based, human
Set-up: AUC, modulator BJ.Gd3+ / AUC, modulator BJ.LNAME / AUC, modulator BJ.Lmin / AUC, modulator BJ.3MA / AUC, modulator BJ.ALLN / AUC, modulator BJ.Boc D / AUC, modulator BJ.CHX / AUC, modulator BJ.Co2+ / AUC, modulator BJ.Nec-1 / AUC, modulator BJ.Pepstatin / AUC, modulator BJ.TLCK / AUC, modulator BJ.atoc / AUC, modulator BJ.trolox / AUC, modulator BJ.zVAD: unit not given beside the values
Conditions: BJeLR cells, modulatory profile value (AUC); for AUC, modulator BJ.3MA: lethal compound cotreated with modulator 3MA; for AUC, modulator BJ.ALLN: lethal compound cotreated with modulator ALLN; for AUC, modulator BJ.Boc D: lethal compound cotreated with modulator Boc D; for AUC, modulator BJ.CHX: lethal compound cotreated with modulator CHX; for AUC, modulator BJ.Co2+: lethal compound cotreated with modulator Co2+; for AUC, modulator BJ.DPQ: lethal compound cotreated with modulator DPQ; for AUC, modulator BJ.Gd3+: lethal compound cotreated with modulator Gd3+; for AUC, modulator BJ.LNAME: lethal compound cotreated with modulator LNAME; for AUC, modulator BJ.Lmin/NAD+: lethal compound cotreated with modulator Lmin/NAD+; for AUC, modulator BJ.Lmin: lethal compound cotreated with modulator Lmin; for AUC, modulator BJ.NAD+: lethal compound cotreated with modulator NAD+; for AUC, modulator BJ.NMMA: lethal compound cotreated with modulator NMMA; for AUC, modulator BJ.Nec-1: lethal compound cotreated with modulator Nec-1; for AUC, modulator BJ.Pepstatin: lethal compound cotreated with modulator Pepstatin; for AUC, modulator BJ.TLCK: lethal compound cotreated with modulator TLCK; for AUC, modulator BJ.atoc: lethal compound cotreated with modulator atoc; for AUC, modulator BJ.trolox: lethal compound cotreated with modulator trolox; for AUC, modulator BJ.zVAD: lethal compound cotreated with modulator zVAD

SMILES | AUC, modulator BJ.3MA | AUC, modulator BJ.ALLN | AUC, modulator BJ.Boc D | AUC, modulator BJ.CHX | AUC, modulator BJ.Co2+ | AUC, modulator BJ.DPQ | AUC, modulator BJ.Gd3+ | AUC, modulator BJ.LNAME | AUC, modulator BJ.Lmin/NAD+ | AUC, modulator BJ.Lmin | AUC, modulator BJ.NAD+ | AUC, modulator BJ.NMMA | AUC, modulator BJ.Nec-1 | AUC, modulator BJ.Pepstatin | AUC, modulator BJ.TLCK | AUC, modulator BJ.atoc | AUC, modulator BJ.trolox | AUC, modulator BJ.zVAD
O=C1c2c(O)ccc(O)c2C(=O)c2c(NCCNCCO)ccc(NCCNCCO)c21 [Mitoxantrone] | 0.03352 | 0.06204 | 0.03746 | 0.1437 | 0.4538 | −0.05814 | 0.01069 | 0.007578 | 0.1162 | 0.04368 | 0.08733 | 0.004431 | −0.03038 | 0.003263 | 0.02288 | 0.02585 | −0.01862 | 0.0497
[N-]=[N+]=[N-].[Na+] [NaN3] | −0.09559 | −0.00382 | −0.007273 | 0.07262 | −0.02123 | −0.06947 | 0.01113 | −0.01832 | −0.007837 | −0.08417 | 0.0696 | 0.005874 | −0.05229 | 0.01611 | 0.032 | −0.005135 | −0.03837 | −0.001065
COc1cc([C@@H]2c3cc4c(cc3[C@H](O)[C@H]3COC(=O)[C@H]23)OCO4)cc(OC)c1OC [Podophyllotoxin] | −0.01267 | −0.003673 | 0.003542 | 0.1228 | 0.09497 | −0.03896 | 0.01784 | 0.005868 | 0.1012 | 0.05457 | 0.09627 | −0.007043 | −0.04167 | 0.02214 | −0.02042 | 0.007072 | −0.01282 | 0.0496
C=C(C)[C@H]1Cc2c(ccc3c2O[C@@H]2COc4cc(OC)c(OC)cc4[C@@H]2C3=O)O1 [Rotenone] | −0.0266 | −0.03435 | −0.01674 | 0.1066 | 0.0838 | −0.02278 | 0.01421 | −0.01131 | 0.1439 | 0.06492 | 0.1037 | 0.005801 | −0.02888 | 0.02007 | −0.02169 | 0.05116 | −0.01075 | 0.04408
O=C(CCCCCN1C(=O)c2cccc3cccc(c23)C1=O)NO [Scriptaid] | −0.0206 | −0.07856 | 0.03167 | 0.2681 | 0.2406 | 0.004892 | 0.0289 | 0.03611 | 0.2114 | 0.1113 | 0.1384 | 0.02102 | 0.02804 | −0.0282 | 0.07545 | −0.005396 | −0.0185 | 0.1205
CC(/C=C/C(=O)NO)=C\[C@@H](C)C(=O)c1ccc(N(C)C)cc1 [TrichostatinA] | −0.004309 | −0.08774 | 0.09612 | 0.2588 | 0.3091 | −0.009523 | −0.008802 | −0.04203 | 0.1597 | 0.08423 | 0.05544 | −0.01861 | −0.04751 | −0.01284 | 0.02879 | −0.01806 | −0.02672 | 0.1198
